Test results reported in US11091483B2, “Protein kinase regulators” (Nanjing Gator Meditech Company, Ltd., priority 2016, dated 2021).
Read-outs that look alike come from different tables or passages of the source.

Assays:
[1] = tested on: HCT116 (human colon cancer); assay: CCK-8 cell viability assay on HCT116 cells; type: cell-based; conditions: HCT-116, 48 h
Protocol: (§1) The plate is incubated for 48 hours.
(§2) CCK-8 solution is added directly to the cells.

[2] = tested on: MDA-MB-231 (MDA 231, human breast adenocarcinoma); assay: CCK-8 cell viability assay on MDA-MB-231 cells; type: cell-based
Protocol: as §1, §2

[3] = tested on: pAkt (phosphorylated form of Akt); assay: Western blots on A549 cells after 72 hours; conditions: western blot
Protocol: The following kinases were examined: Akt, pAkt, Mek1, Mek2, Erk2, pErk2 and c-Myc. In addition, Induced myeloid leukemia cell differentiation protein (Mcl-1) was also evaluated.

[4] = Pharmacokinetic properties in a mouse; conditions: for Oral Bioavailability (% F): i.v. 2 mg/kg and oral 10 mg/kg; for AUC(0-inf): plasma, po, 10 mg/kg
Protocol: (§3) Each compound was formulated and administered to a mouse. Blood was taken at specific time points (0.25 h, 0.5 h, 1 h, 2 h, 4 h, 8 h, and 24 h) and evaluated for the drug administered by LC/MS. Each compound was administered i.v. at 2 mg/kg and also evaluated by oral administration (gavage) at 10 mg/kg (Formulation: 5% DMSO+95% HP-β-CD (20%, W/V) yielding a solution). […] In addition, percent oral bioavailability or % F is a measure of the percent of the drug given orally that is in systemic circulation in the plasma.

in vivo = conditions: mouse, po, 10 mg/kg
Protocol: as §3

[5] = HCT116, 48 hours incubation, CCK-8, read-out: IC50 (uM, HCT116)
[6] = MDA-MB-231, 48 hours incubation, CCK-8, read-out: IC50 (uM, MDA 231)

| Structure (SMILES) | IC50 [1, 5] [µM] | IC50 [2, 6] [µM] | also measured |
| --- | --- | --- | --- |
| O=C1C2=C(CCN(Cc3cccs3)C2)N2CCN=C2N1Cc1ccc(Cl)cc1 [Compound 25] | 1.7 | 0.71 | – |
| O=C1C2=C(CCN(Cc3cccc(OC(F)(F)F)c3)C2)N2CCN=C2N1Cc1ccc(C(F)(F)F)cc1 [Compound 21] | 0.37 | 0.27 | – |
| C#Cc1cccc(CN2CCC3=C(C2)C(=O)N(Cc2ccc(OC(F)(F)F)cc2)C2=NCCN23)c1 [Compound 8] | 1.8 | 0.88 | – |
| O=C1C2=C(CCN(Cc3ccccc3)C2)N2CCN=C2N1Cc1ccc(C(F)(F)F)cc1 [Compound 2] | 0.03 | 0.05 | concentration providing similar reductions in pAkt [3]: 0.037 uM |
| C#Cc1cccc(CN2CCC3=C(C2)C(=O)N(Cc2ccc(C(F)(F)F)cc2)C2=NCCN23)c1 [Compound 12] | 0.22 | 0.22 | – |
| Cc1ccccc1CN1C(=O)C2=C(CCN(Cc3ccccc3)C2)N2CCN=C12 [TIC10, 11-benzyl-7-[(2-methylphenyl)methyl]-2,5,7,11-tetraazatricyclo[7.4.0.0^2,6]trideca-1 (9),5-dien-8-one, reference compound] | – | – | concentration providing similar reductions in pAkt [3]: 10 uM; Oral Bioavailability (% F) [4]: 1.2 % F; IC50 ([1]; read-out: IC50 (uM, HCT116)): 2.8 µM; IC50 ([2]; MDA-MB-231, 48 h, read-out: IC50 (uM, MDA 231)): 3 µM; AUC(0-inf) (in vivo): 3.1 ng·h/mL |
| O=C1C2=C(CCN(Cc3cccc(F)c3)C2)N2CCN=C2N1Cc1ccc(C(F)(F)F)cc1 [Compound 18] | 0.022 | 0.078 | Oral Bioavailability (% F) [4]: 27 % F; AUC(0-inf) [4]: 823 ng·h/mL |
| [2H]c1c([2H])c([2H])c(C([2H])([2H])N2CCC3=C(C2)C(=O)N(Cc2ccc(C(F)(F)F)cc2)C2=NCCN23)c([2H])c1[2H] [Compound 19] | 0.089 | – | Oral Bioavailability (% F) [4]: 60 % F; AUC(0-inf) [4]: 604 ng·h/mL |
| N#Cc1cccc(CN2CCC3=C(C2)C(=O)N(Cc2ccc(C(F)(F)F)cc2)C2=NCCN23)c1 [Compound 15] | 0.007 | 0.024 | – |
| O=C1C2=C(CCN(Cc3ccc(F)cc3)C2)N2CCN=C2N1Cc1ccc(Br)cc1 [Compound 23] | 0.36 | 0.61 | – |
| O=C1C2=C(CCN(Cc3cccc(C(F)(F)F)c3)C2)N2CCN=C2N1Cc1ccc(C(F)(F)F)cc1 [Compound 24] | 0.087 | 0.22 | – |
| C#Cc1ccc(CN2CCC3=C(C2)C(=O)N(Cc2ccc(Cl)cc2)C2=NCCN23)cc1 [Compound 22] | 1.8 | 3.4 | – |
| Cc1cccc(CN2C(=O)C3=C(CCN(Cc4ccccc4)C3)N3C2=NC2CCCCC23)c1 (stereo not drawn) [Compound 5] | 1.3 | 0.069 | – |
| O=C1C2=C(CCN(Cc3ccsc3)C2)N2CCN=C2N1Cc1ccc(Cl)cc1 [Compound 26] | 0.57 | 0.31 | – |
| O=C1C2=C(CCN(Cc3ccccc3)C2)N2CCN=C2N1Cc1ccc(OC(F)(F)F)cc1 [Compound 20] | 0.37 | 0.82 | – |

The next lines start with results.

| IC50 [1, 5] [µM] | IC50 [2, 6] [µM] | Structure (SMILES) | also measured |
| --- | --- | --- | --- |
| > 25 | > 25 | Cc1ccccc1CN1C(=O)C2=C(CCN(Cc3ccccc3Br)C2)N2CCN=C12 [Compound 10] | – |
| 1.4 | 1.2 | O=C1C2=C(CCN(Cc3ccccc3)C2)N2CCN=C2N1Cc1ccccc1C(F)(F)F [Compound 6] | – |
| 0.082 | 0.069 | C#Cc1cccc(CN2CCC3=C(C2)C(=O)N(Cc2ccc(Cl)cc2)C2=NCCN23)c1 [Compound 4] | Oral Bioavailability (% F) [4]: 33 % F; AUC(0-inf) [4]: 255 ng·h/mL |
| 0.08 | 0.12 | O=C1C2=C(CCN(Cc3ccccc3)C2)N2CCN=C2N1Cc1ccc(Cl)c(Cl)c1 [Compound 9] | – |
| 0.72 | 0.74 | Cc1ccccc1CN1C(=O)C2=C(CCN(Cc3cccc(Br)c3)C2)N2CCN=C12 [Compound 11] | – |
| 0.011 | 0.024 | N#Cc1cccc(CN2CCC3=C(C2)C(=O)N(Cc2ccc(Cl)cc2)C2=NCCN23)c1 [Compound 14] | – |
| 0.24 | 0.4 | O=C1C2=C(CCN(Cc3ccccc3)C2)N2CCN=C2N1Cc1cccc(C(F)(F)F)c1 [Compound 7] | – |
| 0.023 | 0.064 | O=C1C2=C(CCN(Cc3cccc(F)c3)C2)N2CCN=C2N1Cc1ccc(Br)cc1 [Compound 17] | – |
| 0.28 | 0.28 | C#Cc1cccc(CN2CCC3=C(C2)C(=O)N(Cc2ccc(Br)cc2)C2=NCCN23)c1 [Compound 13] | – |
